# Test results: US11655241B2, “Heterocyclic compound and use thereof” (Takeda Pharmaceutical Company Limited, priority 2018, dated 2023)
# Target: T1, human orexin type 2 receptor (Homo sapiens, UniProt O43614)
# T1 construct: expressed in transfected cells
# T1 sequence (O43614 1-444): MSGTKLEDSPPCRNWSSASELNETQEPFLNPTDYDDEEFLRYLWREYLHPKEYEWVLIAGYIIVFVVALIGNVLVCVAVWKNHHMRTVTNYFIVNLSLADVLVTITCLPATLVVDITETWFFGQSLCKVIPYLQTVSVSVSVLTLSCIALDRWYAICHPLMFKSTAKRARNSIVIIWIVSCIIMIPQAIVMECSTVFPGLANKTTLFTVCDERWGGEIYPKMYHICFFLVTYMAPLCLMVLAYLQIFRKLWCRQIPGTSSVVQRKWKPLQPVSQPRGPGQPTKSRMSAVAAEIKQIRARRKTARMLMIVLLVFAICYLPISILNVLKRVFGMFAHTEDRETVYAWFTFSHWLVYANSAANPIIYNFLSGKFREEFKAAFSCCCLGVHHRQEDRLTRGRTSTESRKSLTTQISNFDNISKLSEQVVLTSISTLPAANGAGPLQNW
# Test: Measurement of orexin type 2 receptor agonist activity (calcium fluorescence, Fluo-4 AM, FDSS)
# Format: cell-based
# Details: compound at 3 μM; CHO cells forcibly expressing human OX2 receptor; DMSO = 0%, orexin A (human) 10 nM = 100%
# Description: Experimental Example 1: Obtainment of Cell Stably Expressing Human Orexin Type 2 Receptor (hOX2R)
# To obtain a cell clone stably expressing human orexin type 2 receptor, human orexin type 2 receptor cDNA was inserted into pcDNA3.1(+) plasmid vector (Invitrogen), and a plasmid DNA for expression of human orexin type 2 receptor (pcDNA3.1(+)/hOX2R) was cloned. The plasmid DNA was introduced into CHO-dhfr cell by an electroporation method, and human orexin type 2 receptor expressing clone cells were obtained by limiting dilution method by using G418 drug resistance as a selection marker.
# Experimental Example 2: Measurement of Orexin Type 2 Receptor Agonist Activity
# CHO cells forcibly expressing human OX2 receptor were seeded in each well of 384 well black transparent bottom plate (BD Falcon) at 7,500 cells/well, and cultured for one day in a 5% CO2 incubator at 37° C. After removal of the medium in the cell plate, assay buffer A containing a calcium indicator (HBSS (Thermo Fisher Scientific), 20 mM HEPES (Thermo Fisher Scientific), 0.1% BSA (Wako Pure Chemical Industries, Ltd. or Sigma-Aldrich), 2.5 μg/mL Fluo-4 AM (DOJINDO Chemical), 0.08% Pluronic F127 (DOJINDO Chemical), 1.25 mM probenecid (DOJINDO Chemical)) was added at 30 μL/well. The plate was stood for 30 min in a 5% CO2 incubator at 37° C., and further stood at room temperature for 30 min. A test compound prepared by diluting with assay buffer B (HBSS, 20 mM HEPES, 0.1% BSA) was added at 10 μL/well, and the fluorescence value was measured by FDSSμCELL (Hamamatsu Photonics K.K.) every one sec for 1 min, and thereafter every two sec for 1 min 40 sec. The activity (%) of the test compound was calculated assuming that variation in the fluorescence value when DMSO was added instead of the test compound was 0%, and variation in the fluorescence value when orexin A (human) (PEPTIDE INSTITUTE, INC.) was added at the final concentration of 10 nM was 100%. The activity of each compound at the concentration of 3 μM was shown below.
row,SMILES,"OX2R agonist activity (3 μM, %)"
1,"COC(=O)N[C@H]1CCN(C(=O)C2CCC2)[C@H]1Cc1cccc(-c2cccc(F)c2)c1 (relative stereo) [Example 1, methyl{cis-1-(cyclobutanecarbonyl)-2-[(3′-fluoro[1,1′-biphenyl]-3-yl)methyl]pyrrolidin-3-yl}carbamate]",33%
2,"O=C(N[C@H]1CCN(C(=O)N2CCC2)[C@H]1Cc1csc(-c2cccc(F)c2)n1)[C@@H]1CCCO1 [Example 23, (2S)-N-[(2S,3S)-1-(azetidine-1-carbonyl)-2-{[2-(3-fluorophenyl)-1,3-thiazol-4-yl]methyl}pyrrolidin-3-yl]oxolane-2-carboxamide]",76%
3,"CC(F)(F)C(=O)N[C@H]1CCN(C(=O)C2CCC2)[C@H]1Cc1cccc(-c2cccc(F)c2)c1 (relative stereo) [Example 8, N-{cis-1-(cyclobutanecarbonyl)-2-[(3′-fluoro [1,1′-biphenyl]-3-yl)methyl]pyrrolidin-3-yl}-2,2-difluoropropanamide]",66%
4,"O=C(N[C@H]1CCN(C(=O)N2CCC2)[C@H]1Cc1cccc(-c2cccc(F)c2)n1)[C@@H]1CCCO1 [Example 21, (2S)-N-[(2S,3S)-1-(azetidine-1-carbonyl)-2-{[6-(3-fluorophenyl)pyridin-2-yl]methyl]pyrrolidin-3-yl]oxolane-2-carboxamide]",59%
5,"O=C(N[C@H]1CCN(C(=O)C2CCC2)[C@H]1Cc1csc(-c2cccc(F)c2)n1)[C@@H]1CCCO1 [Example 24, (2S)-N-[(2S,3S)-1-(cyclobutanecarbonyl)-2-{[2-(3-fluorophenyl)-1,3-thiazol-4-yl]methyl}pyrrolidin-3-yl]oxolane-2-carboxamide]",65%
6,"CN(C)C(=O)C(=O)N[C@H]1CCN(C(=O)N2CCC2)[C@H]1Cc1csc(-c2cccc(F)c2)n1 [Example 19, N^~2^~-[(2S,3S)-1-(azetidine-1-carbonyl)-2-{[2-(3-fluorophenyl)-1,3-thiazol-4-yl]methyl}pyrrolidin-3-yl]-N^~1,N^~1^~- dimethylethanediamide]",89%
7,"O=C(NC1CCN(C(=O)C2CCC2)C1Cc1cccc(-c2cccc(F)c2)c1)[C@@H]1CCCO1 (stereo in doubt) [Example 16, (2S)-N-{cis-1-(cyclobutanecarbonyl)-2-[(3′-fluoro[1,1′-biphenyl]-3-yl)methyl]pyrrolidin-3-yl}oxolane-2-carboxamide]",90%
8,"CN(C)C(=O)C(=O)NC1CCN(C(=O)C2CCC2)C1Cc1cccc(-c2cccc(F)c2)c1 (stereo not drawn) [Example 4, N^~2^~-{cis-1-(cyclobutanecarbonyl)-2-[(3′-fluoro[1,1′-biphenyl]-3-yl)methyl]pyrrolidin-3-yl}-N^~1^~,N^~1^~- dimethylethanediamide]",95%
9,"CN(C)C(=O)C(=O)N[C@H]1CCN(C(=O)C2CCC2)[C@H]1Cc1csc(-c2cccc(F)c2)n1 [Example 20, N^~2^~-[(2S,3S)-1-(cyclobutanecarbonyl)-2-{[2-(3-fluorophenyl)-1,3-thiazol-4-yl]methyl}pyrrolidin-3-yl]-N^~1,N^~1^~- dimethylethanediamide]",82%
10,"O=C(C1CCC1)N1CC[C@H](NC(=O)C2(F)CCC2)[C@@H]1Cc1cccc(-c2cccc(F)c2)c1 (relative stereo) [Example 10, N-{cis-1-(cyclobutanecarbonyl)-2-[(3′-fluoro[1,1′-biphenyl]-3-yl)methyl]pyrrolidin-3-yl}-1-fluorocyclobutane-1-carboxamide]",79%

# Results, then the molecule that gave them:
row,"OX2R agonist activity (3 μM, %)",SMILES
1,62%,"O=C(N[C@H]1CCN(C(=O)C2(F)CCC2)[C@H]1Cc1cccc(-c2cccc(F)c2)c1)[C@@H]1CCCO1 [Example 43, (2S)-N-[(2S,3S)-2-[(3′-fluoro[1,1′-biphenyl]-3-yl)methyl]-1-(1-fluorocyclobutane-1-carbonyl)pyrrolidin-3-yl]oxolane-2-carboxamide]"
2,101%,"CN(C)C(=O)C(=O)N[C@H]1CCN(C(=O)N2CCC2)[C@H]1Cc1cccc(-c2cccc(F)c2)c1 [Example 30, N^~2^~-{(2S,3S)-1-(azetidine-1-carbonyl)-2-[(3′-fluoro[1,1′-biphenyl]-3-yl)methyl]pyrrolidin-3-yl}-N^~1^~,N^~1^~-dimethylethanediamide]"
3,97%,"O=C(N[C@H]1CCN(C(=O)C2CCC2)[C@H]1Cc1cccc(-c2cccc(F)c2)c1)[C@@H]1CCCO1 [Example 33, (2S)-N-{(2S,3S)-1-(cyclobutanecarbonyl)-2-[(3′-fluoro[1,1′-biphenyl]-3-yl)methyl]pyrrolidin-3-yl}oxolane-2-carboxamide]"
4,80%,"CN(C)C(=O)C(=O)NC1CCCN(C(=O)C2CCC2)C1Cc1cccc(-c2cccc(F)c2)c1 (stereo not drawn) [Example 29, N^~2^~-{cis-1-(cyclobutanecarbonyl)-2-[(3′-fluoro[1,1′-biphenyl]-3-yl)methyl]piperidin-3-yl}-N^~1^~,N^~1^~- dimethylethanediamide]"
5,101%,"CN(C)C(=O)C(=O)N[C@H]1CCN(C(=O)C2(O)CCC2)[C@H]1Cc1cccc(-c2cccc(F)c2)c1 [Example 37, N^~2^~-[(2S,3S)-2-[(3′-fluoro[1,1′-biphenyl]-3-yl)methyl]-1-(1-hydroxycyclobutane-1-carbonyl)pyrrolidin-3-yl]-N^~1^~,N^~1^~- dimethylethanediamide]"
6,67%,"COC1(C(=O)N[C@H]2CCN(C(=O)N3CCC3)[C@H]2Cc2csc(-c3cccc(F)c3)n2)CC1 [Example 26, N-[(2S,3S)-1-(azetidine-1-carbonyl)-2-{[2-(3-fluorophenyl)-1,3-thiazol-4-yl]methyl}pyrrolidin-3-yl]-1-methoxycyclopropane-1-carboxamide]"
7,54%,"COC1(C(=O)N[C@H]2CCN(C(=O)N3CCC3)[C@H]2Cc2cccc(-c3cccc(F)c3)n2)CC1 [Example 25, N-[(2S,3S)-1-(azetidine-1-carbonyl)-2-([6-(3-fluorophenyl)pyridin-2-yl]methyl]pyrrolidin-3-yl]-1-methoxycyclopropane-1-carboxamide]"
8,60%,"COC1(C(=O)N[C@H]2CCN(C(=O)C3CCC3)[C@H]2Cc2csc(-c3cccc(F)c3)n2)CC1 [Example 27, N-[(2S,3S)-1-(cyclobutanecarbonyl)-2-{[2-(3-fluorophenyl)-1,3-thiazol-4-yl]methyl}pyrrolidin-3-yl]-1-methoxycyclopropane-1-carboxamide]"
9,79%,"CN(C)C(=O)C(=O)N[C@H]1CCN(C(=O)C(C)(C)CO)[C@H]1Cc1cccc(-c2cccc(F)c2)c1 [Example 40, N^~2^~-[(2S,3S)-2-[(3′-fluoro[1,1′-biphenyl]-3-yl)methyl]-1-(3-hydroxy-2,2-dimethylpropanoyl)pyrrolidin-3-yl]-N^~1^~,N^~1^~-dimethylethanediamide]"
10,86%,"CN(C)C(=O)C(=O)N[C@H]1CCN(C(=O)C2(C#N)CCC2)[C@H]1Cc1cccc(-c2cccc(F)c2)c1 [Example 36, N^~2^~-((2S,3S)-1-(1-cyanocyclobutane-1-carbonyl)-2-[(3′-flluoro[1,1′-biphenyl]-3-yl)methyl]pyrrolidin-3-yl]-N^~1^~,N^~1^~- dimethylethanediamide]"
